Experiments:
[1] = system: high-fat diet-fed C57BL/6J mouse; test: Histopathology of liver (hepatocellular ballooning); assay type: in vivo, C57BL/6J mice; settings: grade 0 absence, 1 few cells, 2 many cells (Table 4), HFD-fed mice
Procedure: Animal studies were performed and approved under the guidelines of the Institutional Animal Care and Use Committee in Taiwan (12 Mar. 2015). The 4-week old male C57BL/6J mice (total amount n=63) were obtained from the National Laboratory Animal Center (Taipei, Taiwan). After acclimatization for one week, all of the mice were randomly assigned into a control (CON) group and a high-fat diet (HFD) group. For the following 12 weeks, the CON group (n=9) received a control diet or a low-fat diet (Diet 12450B, Research Diets, Inc., New Brunswick, N.J., USA), while the HFD group (n=54) received a high-fat diet (Diet 12451, Research Diets, New Brunswick, N.J., USA). The low-fat diet was composed of protein 20%, carbohydrate 70% and fat 10%, whereas the high-fat diet was composed of protein 20%, carbohydrate 35%, and fat 45% (of total energy, % kcal). After HFD feeding for 8 weeks, the HFD group was randomly subdivided into six groups (n=9 per group) receiving different treatments and fed on HFD. […] The HF+AnK1, HF+AnK2, and HF+AnK3 groups are collectively termed AnK-treated HFD groups in the following examples. The CON mice were administered vehicle. All treatments were administered via oral gavage once daily. After administration for 4 weeks, all mice were fasted 12 hours, and blood was collected from the retro-orbital sinus under ether anesthesia. At the end of the experiment, the mice were sacrificed via carbon dioxide inhalation. Liver, adipose tissue, and skeletal muscle were collected and immediately stored at −80° C. for target gene analysis.
Parts of visceral adipose and liver specimens were fixed with formalin (200 g/kg) neutral buffered solution and embedded in paraffin. A series of 8 μm-thick sections was cut and stained with hematoxylin and eosin. For microscopic examination, a microscope (Olympus BX51, Olympus, Tokyo, Japan) was used and the images were photographed.
On the basis of previous study, the degree of hepatocellular ballooning is defined in TABLE 4: […]

[2] = system: human liver cancer Hep3B cells; settings: cited from earlier work
[3] = system: phospho-Akt (Ser^473)/total-Akt; test: Western blotting of phospho-Akt/total-Akt in skeletal muscle and liver; assay type: in vivo, C57BL/6J mice; settings: HFD-induced reduction, AnK 10, 20, 40, Feno 250, Metf 300 mg/kg/day, vs HF group
Source text: (§1) The 4-week old male C57BL/6J mice (total amount n=63) were obtained from the National Laboratory Animal Center (Taipei, Taiwan). After acclimatization for one week, all of the mice were randomly assigned into a control (CON) group and a high-fat diet (HFD) group. […] After HFD feeding for 8 weeks, the HFD group was randomly subdivided into six groups (n=9 per group) receiving different treatments and fed on HFD. […] The HF+AnK1, HF+AnK2, and HF+AnK3 groups are collectively termed AnK-treated HFD groups in the following examples. The CON mice were administered vehicle. All treatments were administered via oral gavage once daily. After administration for 4 weeks, all mice were fasted 12 hours, and blood was collected from the retro-orbital sinus under ether anesthesia. At the end of the experiment, the mice were sacrificed via carbon dioxide inhalation. Liver, adipose tissue, and skeletal muscle were collected and immediately stored at −80° C. for target gene analysis.
About 0.1 g of liver tissue, skeletal muscle, or adipose tissue was used for the homogenate samples. Samples were powdered under liquid nitrogen and homogenized for 20 seconds in 500 μL buffer containing 20 mM Tris-HCl (pH 7.4 at 4° C.), 2% SDS, 5 mM EDTA, 5 mM EGTA, 1 mM dithiothreitol (DTT), 100 mM NaF, 2 mM sodium vanadate, 0.5 mM phenylmethylsulfonyl fluoride, 10 μg/mL leupeptin, and 10 μL/mL pepstatin. The total membrane fraction was used for measurement. The protein concentration in supernatant was determined with a BCA protein assay kit (Thermo Scientific, Rockford, Ill., USA). […] The membrane was blocked with 5% slim milk in Tris-buffered saline (TBS)(Amersham BioSciences, Uppsala, Sweden) containing 0.05% Tween-20 (Bio Rad, CA, USA) and incubated overnight at 4° C. with antibodies at 1:200 dilution. Subsequently, the membrane was washed three times with TBS containing 0.05% Tween-20 and incubated with secondary antibody anti-rabbit (1:1000)(Jackson ImmunoResearch Laboratories, Inc., PA, USA) for 1 hour. Immunoreactive bands were detected with ECL reagent kit (GE Healthcare BioSciences, Buckinghamshire, UK). The intensity of Western blot signals was analyzed using AlphaEase FC software (Alpha Innotech Corporation, Randburg, South Africa). The structural protein GAPDH in the samples was used as the loading control.

human neutrophils = settings: concentration-dependent 1˜25 mM; induced by fMLP and TPA in human neutrophils; cited from earlier work
SREBP1c = test: Liver mRNA by semi-quantitative RT-PCR: SREBP1c; assay type: in vivo, C57BL/6J mice; settings: HFD-fed mice, oral gavage once daily 4 weeks, AnK 10, 20, 40, Feno 250, Metf 300 mg/kg/day, vs HF group
Source text: as §1, with “At the end of the experiment, the mice were sacrificed via carbon dioxide inhalation. Liver, adipose tissue, and skeletal muscle were collected and immediately stored at −80° C. for target gene analysis.” left out
Total RNA from liver tissue of mice was isolated with a Trizol Reagent (Molecular Research Center, Inc., Cincinnati, Ohio, USA) according to the manufacturer's instructions. The integrity of the extracted total RNA was examined by 2% agarose gel electrophoresis, and the RNA concentration was determined by the ultraviolet (UV) light absorbency at 260 nm and 280 nm (Spectrophotometer U-2800A, Hitachi). […]
Levels of mRNA of target genes were quantified by semi-quantitative reverse transcription polymerase chain reaction (RT-PCR). […] PCR products were analyzed by 2% agarose gel and stained with ethidium bromide.

PPARγ = test: Western blotting of PPARγ in adipose tissue; assay type: in vivo, C57BL/6J mice; settings: HFD-fed mice, AnK 10, 20, 40, Feno 250, Metf 300 mg/kg/day, vs HF group
Source text: as §1, with “Liver, adipose tissue, and skeletal muscle were collected and immediately stored at −80° C. for target gene analysis.” left out
About 0.1 g of liver tissue, skeletal muscle, or adipose tissue was used for the homogenate samples. […] The protein concentration in supernatant was determined with a BCA protein assay kit (Thermo Scientific, Rockford, Ill., USA). […] Immunoreactive bands were detected with ECL reagent kit (GE Healthcare BioSciences, Buckinghamshire, UK). The intensity of Western blot signals was analyzed using AlphaEase FC software (Alpha Innotech Corporation, Randburg, South Africa). […]

Compound | Hepatocellular ballooning Mean score ([1]; HF + AnK1: AnK 10 mg/kg/day oral gavage 4 weeks) | Hepatocellular ballooning Mean score ([1]; HF + AnK2: AnK 20 mg/kg/day oral gavage 4 weeks) | Hepatocellular ballooning Mean score ([1]; HF + AnK3: AnK 40 mg/kg/day oral gavage 4 weeks) | apoptotic cell death [2] | expression levels of phosphor-Akt/total-Akt ([3]; liver) | expression levels of phosphor-Akt/total-Akt ([3]; skeletal muscle) | anti-inflammatory effects (modulation of leukocyte activity, inhibition of reactive oxygen species production) (human neutrophils) | mRNA levels of SREBP1c (SREBP1c) | expression levels of PPARγ (protein) (PPARγ) | Hepatocellular ballooning Mean score ([1]; HF + Metf: metformin 300 mg/kg/day oral gavage 4 weeks)
C=C(CC[C@@H](C)[C@H]1CC[C@H]2C3=C(C(=O)C[C@]12C)[C@@]1(C)CC[C@@H](O)[C@](C)(O)[C@@H]1C[C@@H]3O)C(C)C(=O)O (stereo partly drawn) [AnK, 3α,4β,7β-trihydroxy-4α-methylergosta-8,24(28)-dien-11-on-25S-26-oic acid] | 0.7 ± 0.2 | 0.5 ± 0.2 | 0.4 ± 0.2 | inducing apoptotic cell death | significantly reversed | significantly reversed | anti-inflammatory effects | significantly decreased | significantly reduced | 
CN(C)C(=N)N=C(N)N [Metf, metformin, reference compound] |  |  |  |  | significantly reversed | significantly reversed |  | significantly decreased |  | 0.7 ± 0.2
